Measured values taken from paper PMC3639484 (Journal of chromatography. A, 2013).

Test: HILIC/SALT
Assay type: physicochemical
Conditions: isocratic acetonitrile 0%, 10%, 20%, 30%, 40%, 50% and 60% in 0.2% aq. H3PO4, 30 °C

Ac-KWKSFLKTFSKAKKKKLKTLLKAISK-NH2 [Peptide D14]
retention on Penta-HILIC column: No retention
